Reference: patent US10226044B2, “Agricultural and horticultural composition and method for cultivating plant” (AJINOMOTO CO., INC., priority 2014, dated 2019)

What was measured:
[1] = system: rice seeds; conditions: rice seeds treated with 0.2 to 20 mM isoleucine; cited from earlier work
[2] = system: bok choy; conditions: substitution for 20% of nitrate nitrogen in nutrient solution, hydroponics; cited from earlier work
[3] = system: cherry tomato (Suncherry Pure); assay: Amino acid analysis of tomato fruit obtained with sprinkling of Ile or Pro; assay type: in vivo
Protocol: (§1) After the plants of four root clumps uniformly grew, and flower buds began to appear, water (Con.), 10 mM L-isoleucine aqueous solution (Ile), or 10 mM proline aqueous solution (Pro) was sprinkled on the whole plants once a week. The sprinkled volume was adjusted in accordance with the growth of the plants, and it was 15 to 30 mL per one root clump.
Mature fruit were taken from each of the cherry tomato plants sprinkled with water, Ile, or Pro, and the amino acid content was analyzed for each. Two pieces of fruit were taken from the flower cluster of the second tier of one root clump, that is, a total of 8 pieces of fruit were taken for each test group. Fruit juice was pressed out of each piece of fruit, and the fruit juice was diluted 10 times with 0.02 N HCl, and subjected to filter filtration. The amino acids contained in the obtained filtrate were measured. Measurement of the amino acids was performed with High Speed Amino Acid Analyzer L-8800 (Hitachi) according to the manual of this instrument. The amounts of the amino acids (μmol/mL) in each fruit juice filtrate were calculated, and the averages for eight pieces of fruit were used as the amino acid amounts of the corresponding test group.

[4] = system: LOX, JAR1, PI and MYC2 genes; assay: Real-time PCR of jasmonic acid synthesis and response genes in leaves after foliar application; assay type: in vivo, cherry tomato (Suncherry Pure); conditions: 10 mM Ile, 3 hours after foliar application
Protocol: Three hours after the foliar application, leaves of the same part were collected, and RNA was isolated by using SV Total RNA Isolation System™ (Promega) according to the manual of the kit. […] Expression of the 13-lipoxygenase (LOX) gene locating in the upstream of the jasmonic acid biosynthesis pathway, and the gene for synthesis of JA-Ile from JA and Ile (JASMONATE RESISTANT 1 (JAR1)) were analyzed. The expression amounts of the genes are represented as relative expression amounts with respect to that of the actin gene. The results of real-time PCR analysis of the jasmonic acid responding genes, protease inhibitor (PI) and MYC2 genes, performed by using the aforementioned cDNAs as the template are shown in FIG. 13. By the sprinkling of Ile, expression of the PI and MYC2 genes were increased.

[5] = system: Psy, Pds and Zds genes; assay: Real-time PCR of genes involved in carotenoid synthesis in leaves; assay type: in vivo, cherry tomato; conditions: 10 mM Ile, leaves 24 hours after sprinkling
Protocol: A 10 mM isoleucine aqueous solution (Ile) or water (Con.) was sprinkled on leaf surfaces of cherry tomato plants, and RNA was isolated from the leaves 24 hours afterward. By using the isolated RNA, expression of the genes that participate in the biosynthesis of carotenoids, genes of phytoene synthase (Psy), phytoene desaturase (Pds), and ξ-carotene desaturase (Zds), were analyzed. The extraction of RNA, synthesis of cDNA, and real-time PCR analysis were conducted in the same manner as described above.

[6] = system: tomato fruit (Suncherry Pure); assay: Coloring and carotenoid content of harvested immature tomato fruit sprinkled with Ile; assay type: in vivo
Protocol: Then, the beakers were closed with plastic wrap, and left for 5 hours; then the wrap was removed, and the fruit were left as they were. The test was performed at room temperature, and the sprinkling of water and Ile solution was performed twice in total at an interval of one week. […] The tomato fruit of which seeds were removed were frozen with liquid nitrogen, and ground in a mortar. […] The extraction mixture was centrifuged for 5 minutes (8000 rpm), and the chloroform layer as the lower layer was transferred to a new tube. Chloroform (0.5 mL) was added again to the former tube, extraction was performed in the same manner, and the chloroform layer was fully taken out, and transferred to the latter tube containing the aforementioned chloroform extract. Then, chloroform was evaporated from the obtained extract by using a centrifugal evaporator. Then, a sample solution was prepared by adding 0.5 mL of chloroform to the residue to dissolve it, and carotenoids contained in the sample solution were analyzed. For the measurement of carotenoids, the extraction sample was diluted 100 times with chloroform, and absorbance thereof was measured at the extinction wavelength of carotenoids (480 nm) by using DU800 Spectrophotometer (Beckman Coulter).

[7] = system: cherry tomato (Suncherry Pure); assay: Antioxidant capacity of tomato fruit extract (DPPH radical method); assay type: in vivo; conditions: 70% methanol extract of mature fruit; compared to tomatoes sprinkled with water (Con.) or Pro
Protocol: as §1

[8] = system: Apples (variety, Tsugaru); assay: Anthocyanin content of pericarp of harvested apples immersed in Ile solutions; assay type: in vivo, apple; conditions: immersed 15 minutes in Ile solutions (1, 5, 10 mM) + 0.1% Applauch BI; 10th and 15th days after the treatment; compared to control group
Protocol: Apples (variety, Tsugaru) ready to mature (before coloring) were harvested, washed with tap water and then with distilled water, and immersed into water (control) and isoleucine (Ile) aqueous solutions of various concentrations for 15 minutes. To each treatment solution, 0.1% Applauch BI (Kao) was added. The treatment groups consisted of the following groups.
After the treatment, the apples were air-dried, and left standing in an incubator. The conditions consisted of constant temperature of 20° C., lighting condition of 120 μM/m^2/s obtained with 9 of 40 W fluorescent lamps, and daylength conditions of 16 hours of light period and 8 hours of dark period per day.
Pericarp color of the apples was evaluated by measuring anthocyanin content. Pericarp (0.5 g) collected from an apple of each treatment group was immersed in 5 mL of 2% formic acid at 4° C. for 24 hours to extract anthocyanin. Anthocyanin contained in the extract was analyzed by liquid chromatography. Since most part of anthocyanin of apple consists of cyanidin galactosides, anthocyanin concentration was calculated as cyanidin galactoside concentration.

[9] = fruit juice, plants sprinkled with 10 mM solution once a week, average of 8 fruit
[10] = relative to actin, compared to water (Con.)

SMILES: CC[C@H](C)[C@H](N)C(=O)O [Ile, L-isoleucine]
- production of momilactones A and B [1]: promoted
- growth (weight of root clump) [2]: not effective
- nitrogen and phosphorus contents of terrestrial parts (shoots) [2]: increased
- many kinds of essential amino acids including branched chain amino acids and aromatic amino acids in fruit ([3]; 10 mM sprinkled once a week, compared to control): increased
- Ala in fruit juice [3, 9]: 4.51 µmol/mL
- Arg in fruit juice [3, 9]: 0.14 µmol/mL
- Asn in fruit juice [3, 9]: 0.55 µmol/mL
- Asp in fruit juice [3, 9]: 1.33 µmol/mL
- Cys in fruit juice [3, 9]: 0.21 µmol/mL
- Gln in fruit juice [3, 9]: 1.1 µmol/mL
- Glu in fruit juice [3, 9]: 6.46 µmol/mL
- Gly in fruit juice [3, 9]: 0.35 µmol/mL
- His in fruit juice [3, 9]: 0.19 µmol/mL
- Ile in fruit juice [3, 9]: 0.23 µmol/mL
- Leu in fruit juice [3, 9]: 0.39 µmol/mL
- Lys in fruit juice [3, 9]: 0.33 µmol/mL
- Met in fruit juice [3, 9]: 0.09 µmol/mL
- Phe in fruit juice [3, 9]: 0.5 µmol/mL
- Pro in fruit juice [3, 9]: 0.33 µmol/mL
- Ser in fruit juice [3, 9]: 0.67 µmol/mL
- Thr in fruit juice [3, 9]: 0.3 µmol/mL
- Total amino acids in fruit juice [3, 9]: 20.25 µmol/mL
- Trp in fruit juice [3, 9]: 0.06 µmol/mL
- Tyr in fruit juice [3, 9]: 0.082 µmol/mL
- Val in fruit juice [3, 9]: 0.21 µmol/mL
- γ-ABA in fruit juice [3, 9]: 6.42 µmol/mL
- expression of the MYC2 gene [4]: increased
- expression of the PI gene [4]: increased
- Expression of the JAR1 gene in leaves [4, 10]: significantly higher
- Expression of the LOX gene in leaves [4, 10]: significantly higher
- expression of Pds [5]: increased
- expression of Psy [5]: increased
- expression of Zds [5]: increased
- color of harvested fruit around the 27th day ([6]; 10 mM Ile, 1 mL on six immature fruit, twice at an interval of one week, room temperature, water control still green): began to turn color
- color of harvested fruit around the 34th day ([6]; 10 mM Ile, sprinkled twice, water control still half-mature orange): turned color to a fully mature red
- carotenoid content of the tomato fruit ([6]; around the 27th day, absorbance at 480 nm, compared to fruit treated with water): higher
- antioxidant capacity (free radical-eliminating ability, DPPH) [7]: higher
- anthocyanin content of apple pericarp [8]: higher
